Data published in US20250162979A1, “P-DIPHENYL COMPOUND DERIVATIVE MIXTURE AND METHOD OF PRODUCING THE SAME” (HODOGAYA CHEMICAL CO., LTD., priority 2021, published 2025).

Assay: Solubility in organic solvent, checked visually at room temperature
Assay type: physicochemical
Details: room temperature (25±5° C.), stirred 3 to 5 minutes, visual check, % (w/w)

Solubility in THF (10 g tetrahydrofuran): 49.9%
Solubility in toluene (10 g toluene): 24.2%
SMILES: Cc1ccc(N(c2ccccc2)c2ccc(-c3ccc(N(c4ccccc4)c4ccc(C)cc4)cc3)cc2)cc1 [A-1, 4,4′-bis(4-methyldiphenylamino)-p-diphenyl]
